According to publication PMC10860144, “Exploring the Dispersion and Electrostatic Components in Arene–Arene Interactions between Ligands and G4 DNA to Develop G4-Ligands” (Journal of Medicinal Chemistry, 2024):

How the values were obtained:
[1] = tested on: Immortalized Human Total Liver Cell Population (IHTLCP); assay: IHTLCP cell viability (PrestoBlue); type: cell-based; conditions: 72 h
Procedure: (§1) Cell viability was measured using the PrestoBlue cell viability reagent (Invitrogen) according to the manufacturer’s recommendations.
For IHTLCP, 1850 cells/well were seeded in complete Prigrow III medium (abm) in 384-wells, black walls plate (PerkinElmer) the day before the treatment. Compounds were titrated 1/2 in DMSO, dissolved in medium, and transferred to the cells to generate the indicated final concentrations (final volume 60 μL/well). 72 h after treatment, 6 μL of PrestoBlue was added per well. Cells were incubated in PrestoBlue for 1 h at 37 °C after which fluorescence (excitation 535 nm, emission 590 nm, 20 nm bandwidth) was measured using a Synergy H4Microplate Reader. Percent viability of IHTLCP cells was calculated as FLUcmp – FLUbg/FLUDMSO – FLUbg (n = 3). […]
a Intrinsic clearance in rat hepatocytes ((μL/min)/10^6 cells).b Intrinsic clearance in human microsomes (μL/min/mg).
Table S3. […]
as §1
For HeLa cells, 5000 cells/well were seeded in complete medium on 96-wells, black walls plate the day before the treatment. […] Fluorescence (excitation 560 nm, emission 590 nm, 10 nm bandwidth) was recorded using a FLUOstar Omega Microplate Reader (BMG). […]
THP1 cell viability was measured according to a previously published procedure.9

[2] = tested on: G4 DNA structures in HeLa cells; assay: BG4 immunostaining of G4 DNA structures in HeLa cells; type: cell-based, human; conditions: 24 h
Procedure: The pSANG10-3F-BG4 construct, for expression and purification of recombinant BG4 (BG4), was a gift from Shankar Balasubramanian (Addgene plasmid # 55756). BG4 was purified as previously described.[49] BG4 immunostaining was performed as previously described.[50] Briefly, 60,000 HeLa cells were seeded on 13 mm glass coverslips the day before treatment. Cells were treated for 24 h with the compounds at the indicated concentrations. After treatment, cells were fixed in 2% paraformaldehyde and permeabilized in 0.1% Triton X-100 at room temperature. […] Cell nuclei were focused on the DAPI channel, and BG4-positive foci were counted in a semiautomatic mode using a customized Cell Profiler (Broad Institute) pipeline. […]
Figure S23. Toxicity of 5 and 27 calculated as % viability of IHTLCP cells treated for 72h at the indicated concentrations compared to non-treated cells. […] IC50 and R2 determined with Graph Pad Prism is indicated. […]
Cells were imaged with a LEICA SP8 FALCON confocal microscope equipped with a 63× oil objective (NA 1.40) using identical acquisition settings. Cell nuclei were focused on the DAPI channel, and BG4-positive foci were counted in a semiautomatic mode using a customized Cell Profiler (Broad Institute) pipeline. […]

| SMILES | IC50 [1] | number of BG4 foci per cell nucleus ([2]; 2 μM, versus 1 μM and mock-treated cells) | number of BG4 foci per cell nucleus ([2]; 20 μM) |
| --- | --- | --- | --- |
| Cc1cc(C)c2nc(Nc3nc(C)cc(NCCCN(C)C)n3)nc(C)c2c1 [Compound 5, N4-(3-(Dimethylamino)propyl)-6-methyl-N2-(4,6,8-trimethylquinazolin-2-yl)pyrimidine-2,4-diamine] | 0.64 µM | increased significantly | – |
| Cc1cc(C)c2nc(Nc3nc(C)cc(C)n3)nc(C)c2c1 [Compound 27, N-(4,6-Dimethylpyrimidin-2-yl)-4,6,8-trimethylquinazolin-2-amine] | 35 µM | – | not statistically fully significant |
